# Assay results published in patent publication US20180055888A1, “COMPOSITIONS AND METHODS FOR ENHANCING THE THERAPEUTIC POTENTIAL OF STEM CELLS” (priority 2013, published 2018).
# Key:
# [1] = system: mouse model for hind limb peripheral ischemia; assay: Blood flow measurement (non-contact Laser Doppler), mouse hind limb ischemia model; assay type: in vivo, Mouse/Athymic Nude; conditions: for Rank of treatment group, Blood Flow: Day 35, imputed data, group median, rank 1 best of 10 groups
# From the text: (§1) Disclosed herein is the testing of BM MSCs in a mouse model for hind limb peripheral ischemia. Peripheral artery disease (PAD) is a form of peripheral vascular diseases (PVD) in which there are partial or total blockage of blood supply to a limb, usually the leg, leading to impaired blood flow and hypoxia in the tissue. When PAD advances it reaches the stage of critical limb ischemia (CLI) with skin ulcerations, gangrene and unavoidable amputations. One of the most promising innovative treatments for diabetic vascular complications is stem cell-based products that enhance angiogenesis (TRefl-3) Hind limb ischemia animal models have been used to evaluate various therapeutic approaches addressing stem cell transplantation.
# Animal handling was according to the National Institute of Health (NIH) and the Association for Assessment and Accreditation of Laboratory Animal Care (AAALAC). Animals were housed in polysufone (PSU) cages (7-8/cage) measuring […] cm, with stainless steel top grill having facilities for pelleted food and drinking water in glass-clear polycarbonate bottle; bedding: steam sterilized clean paddy husk (Harlan, Sani-chip, Cat#: 106S8216) was used and bedding material was changed along with the cage at least twice a week. Animals were fed ad libitum a commercial rodent diet (Teklad Certified Global 18% Protein Diet cat #: 106S8216). Animals have free access to autoclaved and acidified drinking water (pH between 2.5 and 3.5) obtained from the municipality supply. Animals were housed under standard laboratory conditions, air conditioned and filtered (HEPA F6/6) with adequate fresh air supply (Minimum 15 air changes/hour). Animals were kept in a climate controlled environment. Temperatures range was 20-24° C. and RH range was 30-70% with 12 hours light and 12 hours dark cycle. Species/Strain: Mouse/Athymic Nude; Gender/Number/Age: Male/152/9-10 weeks; Source: Harlan Laboratories, Israel; Body weight: The average body weight was 28.4 g at study initiation (day 1). The minimum and maximum weights of the group were within a range of ±20% of group mean weight; Acclimation period: 5-10 days; Identification: Three position ear notching and cage cards. […] Surgery Day was defined as “DAY 0” in this study. On the day of surgery anesthesia was induced by 1.5 to 3.0% isofiurane, 1.5% N2O and 0.5% O2. […]
# (§2) Body weight was measured on study day −1 prior to the surgery and once weekly thereafter. Blood flow measurement: Blood flow in legs from both sides was measured with a non-contact Laser Doppier before surgery and on days: 1, 3, 7, 14, 21, 28 and 35 post operation. Blood flow measurements were expressed as the ratio of the flow in the ischemic limb to that in the normal limb (Goto et al. Tokai J Exp Clin Med., Vol. 31, No. 3, pp. 128-132, 2006). […]
# [2] = system: mouse model for hind limb peripheral ischemia; assay: In vivo assessment of limb function (graded scale), mouse hind limb ischemia model; parameters: species or system Mouse/Athymic Nude; conditions: Day 35, imputed data, group median, rank 1 best of 10 groups
# From the text: Disclosed herein is the testing of BM MSCs in a mouse model for hind limb peripheral ischemia. Peripheral artery disease (PAD) is a form of peripheral vascular diseases (PVD) in which there are partial or total blockage of blood supply to a limb, usually the leg, leading to impaired blood flow and hypoxia in the tissue. When PAD advances it reaches the stage of critical limb ischemia (CLI) with skin ulcerations, gangrene and unavoidable amputations. […]
# In vivo assessment of limb function and Ischemic damage. Semi-quantitative assessment of impaired use of the ischemic limb was performed once a week post-surgery using the following scale (Stabile et al., Circulation. 2003; 15; 108{2):205-210). […]
# In vivo assessment of limb function. Semi-quantitative assessment of impaired use of the ischemic limb was performed on days 7 up to 35 by using graded functional scales. […]
# (§3) In further analyses the imputation of missing data is done in the following way: Blood Flow (%): Value of the first measurement after the surgery (assumption is that treatment failed so that there is no improvement beyond what was observed immediately after surgery); Ischemic Severity Score: 4=“Total Hind-Limb Loss” (the worst score possible); Limb Function 3=“Dragging of foot” (the worst score possible); Weight (g): The animal's lowest weight at any of the points measured up to and including the day of amputation.
# [3] = system: mouse model for hind limb peripheral ischemia; assay: Macroscopic evaluation of ischemic severity (morphological grades for necrotic area), mouse hind limb ischemia model; assay type: in vivo, Mouse/Athymic Nude; conditions: Day 35, imputed data, group median, rank 1 best of 10 groups
# From the text: as §1
# Under anesthesia, the mouse was placed with ventral side up. A 0.5-1.0 cm incision was made in the skin in the inguinal area. The femoral artery was ligated twice with 6-0 silk thread and transected between the ligatures. […]
# as §2
# [4] = system: mouse model for hind limb peripheral ischemia; assay: Animal disposition (amputations, completion of 35 days follow-up), mouse hind limb ischemia model; assay type: in vivo; conditions: for Completed % (completed 35 days follow-up) / Imputed % (amputation after day 14, attributed to treatment failure): % of animals of the group; for Completed N (completed 35 days follow-up) / Imputed N (amputation after day 14, attributed to treatment failure): number of animals of the group
# From the text: A major problem in pre-clinical studies is often the high drop-out rate of animals due to treatment related failure (amputations after day 14 post surgery) or unrelated to treatment (e.g. death during anesthesia, or amputations before day 14 post surgery). Only a few animals had to be excluded from statistical analysis due to the latter reason.
# as §1
# Under anesthesia, the mouse was placed with ventral side up. A 0.5-1.0 cm incision was made in the skin in the inguinal area. The femoral artery was ligated twice with 6-0 silk thread and transected between the ligatures. The wound was closed with 4-0 silk thread and the mouse was allowed to recover.
# On DAY 1, 24 hours post-surgery, each treated animal was injected intramuscular at two sites (the proximal and the distal side of the surgical wound) or intravenous into the tail vein. For intramuscular injection the animals were injected 50 μl at each site, total 100 μl per animal. For intravenous injection the animals were injected by 200 μl per animal.
# as §3
# [5] = system: mouse model for hind limb peripheral ischemia; assay: Ranking analysis / overall evaluation of all parameters, mouse hind limb ischemia model; assay type: in vivo, Mouse/Athymic Nude; conditions: for Factor 2: Difference between ranks of adjacent-ranked groups / Factor by which average rank differs from the top-ranked group (4) / Average Rank: Day 35, imputed data; for Average Rank: average over Blood Flow, Limb Function, Ischemic Severity Score
# From the text: Study end points were: Clinical score; Body weight measurements; Blood flow measurements Ranking analysis: Each group was given a ranking from 1 to 10 on each of the first 3 endpoints measured (% Blood Flow, Limb Function and Ischemic Severity Score). Rank=1 is highest and Rank=10 is lowest. When two groups are tied, both receive the same rank “in the middle”; e.g. if two groups were tied in Rank=4, both received the score 4.5 (twice of which is the sum of ranks 4 and 5). For each endpoint, the median was computed for each group (the median was used to ensure that extreme value will not affect results). On each endpoint, groups were sorted by median and each given its respective rank. The average rank was computed for each group over all endpoints
# While paired comparisons were done, central results are presented in a way in that they are statistically relevant and can be clearly depicted in graphics. Data are consistent across endpoints and are consistent across different analysis. To obtain this picture we eliminated Weight from consideration. […] Each group was ranked on remaining 3 endpoints on day 35 and assessed Average Rank of groups—a measure combining results from all endpoints.
# Evaluating all Parameters Concurrently at Day 35. Procedure: For each parameter (Blood Flow (%), Limb Function and Ischemic Severity Score) the median in the group across all animals was computed. All the groups based on their median from 1 to 10, where 1 is best, were ranked on each of the following parameters: Blood Flow {%)—highest is 1, lowest is 10; Limb Function—highest is 10, lowest is 1 (worst category is 3, best is 0); Ischemic Severity Score—highest is 10, lowest is 1 (worst category is 4, best is 0); Finally, for each group we computed the average rank over the three parameters.
smiles,measurement,setting,value
"Cc1ccc2c(c1)C(=O)C1(O)CCN(c3ccccc3)C1=N2 (centres unmarked) [DMEM + BB, blebbistatin]",regeneration of blood flow,"[1]; blebbistatin alone, without cells, FIGS. 1A-B",no effect on the regeneration of blood flow
same,"Rank of treatment group, Blood Flow",[1]; im,6.5
same,regeneration in blood flow over time,"[1]; intramuscular, FIG. 1A",marginally recovery effects
same,"Rank of treatment group, Blood Flow",[1]; iv,6.5
same,"Rank of treatment group, Limb Function",[2]; im,5
same,"Rank of treatment group, Limb Function",[2]; iv,5
same,"Rank of treatment group, Ischemic Severity Score",[3]; im,6
same,"Rank of treatment group, Ischemic Severity Score",[3]; iv,6
same,Completed % (completed 35 days follow-up),[4]; im,82.4%
same,"Imputed % (amputation after day 14, attributed to treatment failure)",[4]; im,0%
same,Completed N (completed 35 days follow-up),[4]; im,14
same,"Imputed N (amputation after day 14, attributed to treatment failure)",[4]; im,0
same,Completed % (completed 35 days follow-up),[4]; iv,93.3%
same,"Imputed % (amputation after day 14, attributed to treatment failure)",[4]; iv,0%
same,Completed N (completed 35 days follow-up),[4]; iv,14
same,"Imputed N (amputation after day 14, attributed to treatment failure)",[4]; iv,0
same,overall efficacy in the model,[5]; conclusion over endpoints,no beneficial effect
same,Factor 2: Difference between ranks of adjacent-ranked groups,[5]; im,0.8
same,Factor by which average rank differs from the top-ranked group (4),[5]; im,4.7
same,Average Rank,[5]; im,5.8
same,Factor 2: Difference between ranks of adjacent-ranked groups,[5]; iv,0.0
same,Factor by which average rank differs from the top-ranked group (4),[5]; iv,4.7
same,Average Rank,[5]; iv,5.8
